Columns and labels:
ABUTIL [1] = experiment: Post-emergence herbicidal action; format: in vivo, Abutilon; design: key: 1=total damage; 9=no action; conditions: 250 g of active ingredient per ha, sprayed at 4- to 6-leaf stage, evaluated after about 18 days; scale of nine ratings, 1 to 4 good to very good action
Description: (§1) Monocotyledonous and dicotyledonous test plants are grown in standard soil in plastic pots in a greenhouse and, at the 4- to 6-leaf stage, are sprayed with an aqueous suspension of the test compounds of formula I, prepared from a 25% wettable powder (Example F3, b) according to WO 97/34485 or with an emulsion of the test compounds of formula I, prepared from a 25% emulsifiable concentrate (Example F1, c) according to WO 97/34485, in an amount corresponding to 250 g of active ingredient per ha (500 litres of water per ha). The test plants are then grown on in the greenhouse under optimum conditions. After a test duration of about 18 days, the test is evaluated in accordance with a scale of nine ratings (1=total damage, 9=no action). Ratings of from 1 to 4 (especially from 1 to 3) indicate good to very good herbicidal action.

EUPHOR = experiment: Post-emergence herbicidal action; format: in vivo; conditions: 250 g of active ingredient per ha, sprayed at 4- to 6-leaf stage, evaluated after about 18 days; scale of nine ratings, 1 to 4 good to very good action
Description: as §1

STELLA = experiment: Pre-emergence herbicidal action; format: in vivo, Stellaria; design: key: 1=total damage; 9=no action; conditions: 250 g of active ingredient per ha, sprayed immediately after sowing, evaluated after 3 weeks; scale of nine ratings, 1 to 4 good to very good action
Description: (§2) Monocotyledonous and dicotyledonous test plants are sown in standard soil in plastic pots. Immediately after sowing, the test compounds, in the form of an aqueous suspension (prepared from a 25% wettable powder (Example F3, b) according to WO 97/34485) or in the form of an emulsion (prepared from a 25% emulsifiable concentrate (Example F1, c)), are applied by spraying, in an amount corresponding to 250 g of active ingredient per ha (500 litres of water per ha). The test plants are then grown in a greenhouse under optimum conditions. After a test duration of 3 weeks, the test is evaluated in accordance with a scale of nine ratings (1=total damage, 9=no action). Ratings of from 1 to 4 (especially from 1 to 3) indicate good to very good herbicidal action.

PANICU [2] = experiment: Pre-emergence herbicidal action; format: in vivo; design: key: 1=total damage; 9=no action; conditions: 250 g of active ingredient per ha, sprayed immediately after sowing, evaluated after 3 weeks; scale of nine ratings, 1 to 4 good to very good action
Description: as §2

SETARI [3] = experiment: Pre-emergence herbicidal action; format: in vivo, Setaria; design: key: 1=total damage; 9=no action; conditions: 250 g of active ingredient per ha, sprayed immediately after sowing, evaluated after 3 weeks; scale of nine ratings, 1 to 4 good to very good action
Description: as §2

PANICU [4] = experiment: Post-emergence herbicidal action; format: in vivo; design: key: 1=total damage; 9=no action; conditions: 250 g of active ingredient per ha, sprayed at 4- to 6-leaf stage, evaluated after about 18 days; scale of nine ratings, 1 to 4 good to very good action
Description: as §1

CHENOP [5] = experiment: Pre-emergence herbicidal action; format: in vivo, Chenopodium; design: key: 1=total damage; 9=no action; conditions: 250 g of active ingredient per ha, sprayed immediately after sowing, evaluated after 3 weeks; scale of nine ratings, 1 to 4 good to very good action
Description: as §2

AMARAN [6] = experiment: Pre-emergence herbicidal action; format: in vivo, Amaranthus; design: key: 1=total damage; 9=no action; conditions: 250 g of active ingredient per ha, sprayed immediately after sowing, evaluated after 3 weeks; scale of nine ratings, 1 to 4 good to very good action
Description: as §2

DIGITA [7] = experiment: Pre-emergence herbicidal action; format: in vivo, Digitaria; design: key: 1=total damage; 9=no action; conditions: 250 g of active ingredient per ha, sprayed immediately after sowing, evaluated after 3 weeks; scale of nine ratings, 1 to 4 good to very good action
Description: as §2

CHENOP [8] = experiment: Post-emergence herbicidal action; format: in vivo, Chenopodium; design: key: 1=total damage; 9=no action; conditions: 250 g of active ingredient per ha, sprayed at 4- to 6-leaf stage, evaluated after about 18 days; scale of nine ratings, 1 to 4 good to very good action
Description: as §1

SETARI [9] = experiment: Post-emergence herbicidal action; format: in vivo, Setaria; conditions: 250 g of active ingredient per ha, sprayed at 4- to 6-leaf stage, evaluated after about 18 days; scale of nine ratings, 1 to 4 good to very good action
Description: as §1

AMARAN [10] = experiment: Post-emergence herbicidal action; format: in vivo, Amaranthus; design: key: 1=total damage; 9=no action; conditions: 250 g of active ingredient per ha, sprayed at 4- to 6-leaf stage, evaluated after about 18 days; scale of nine ratings, 1 to 4 good to very good action
Description: as §1

DIGITA [11] = experiment: Post-emergence herbicidal action; format: in vivo, Digitaria; design: key: 1=total damage; 9=no action; conditions: 250 g of active ingredient per ha, sprayed at 4- to 6-leaf stage, evaluated after about 18 days; scale of nine ratings, 1 to 4 good to very good action
Description: as §1

ABUTIL [12] = experiment: Pre-emergence herbicidal action; format: in vivo, Abutilon; design: key: 1=total damage; 9=no action; conditions: 250 g of active ingredient per ha, sprayed immediately after sowing, evaluated after 3 weeks; scale of nine ratings, 1 to 4 good to very good action
Description: as §2

ECHINO [13] = experiment: Pre-emergence herbicidal action; format: in vivo, Echinochloa; design: key: 1=total damage; 9=no action; conditions: 250 g of active ingredient per ha, sprayed immediately after sowing, evaluated after 3 weeks; scale of nine ratings, 1 to 4 good to very good action
Description: as §2

ECHINO [14] = experiment: Post-emergence herbicidal action; format: in vivo, Echinochloa; conditions: 250 g of active ingredient per ha, sprayed at 4- to 6-leaf stage, evaluated after about 18 days; scale of nine ratings, 1 to 4 good to very good action
Description: as §1

COCCN(C1=C(C(=O)c2ccc(C(F)(F)F)nc2C)C(=O)C(C)(C)C(=O)C1(C)C)S(C)(=O)=O [Example 1.001]
4: Pre-emergence action STELLA, rating (STELLA)
1: Post-emergence action ABUTIL, rating (ABUTIL [1]) | Pre-emergence action PANICU, rating (PANICU [2]) | Post-emergence action PANICU, rating (PANICU [4]) | Pre-emergence action CHENOP, rating (CHENOP [5]) | Pre-emergence action AMARAN, rating (AMARAN [6]) | Pre-emergence action DIGITA, rating (DIGITA [7]) | Post-emergence action CHENOP, rating (CHENOP [8]) | Post-emergence action DIGITA, rating (DIGITA [11]) | Pre-emergence action ABUTIL, rating (ABUTIL [12]) | Pre-emergence action ECHINO, rating (ECHINO [13])
2: Post-emergence action EUPHOR, rating (EUPHOR) | Pre-emergence action SETARI, rating (SETARI [3]) | Post-emergence action SETARI, rating (SETARI [9]) | Post-emergence action AMARAN, rating (AMARAN [10]) | Post-emergence action ECHINO, rating (ECHINO [14])

CCS(=O)(=O)N(CCOC)C1=C(C(=O)c2ccc(C(F)(F)F)nc2C)C(=O)C(C)(C)C(=O)C1(C)C [Example 1.007]
1: Post-emergence action ABUTIL, rating (ABUTIL [1]) | Pre-emergence action STELLA, rating (STELLA) | Pre-emergence action PANICU, rating (PANICU [2]) | Pre-emergence action SETARI, rating (SETARI [3]) | Post-emergence action PANICU, rating (PANICU [4]) | Pre-emergence action CHENOP, rating (CHENOP [5]) | Pre-emergence action AMARAN, rating (AMARAN [6]) | Pre-emergence action DIGITA, rating (DIGITA [7]) | Post-emergence action CHENOP, rating (CHENOP [8]) | Post-emergence action DIGITA, rating (DIGITA [11]) | Pre-emergence action ABUTIL, rating (ABUTIL [12]) | Pre-emergence action ECHINO, rating (ECHINO [13])
2: Post-emergence action EUPHOR, rating (EUPHOR) | Post-emergence action SETARI, rating (SETARI [9]) | Post-emergence action AMARAN, rating (AMARAN [10]) | Post-emergence action ECHINO, rating (ECHINO [14])

COCCN(C1=C(C(=O)c2ccc(C(F)(F)F)nc2C)C(=O)C2CCC1C2)S(C)(=O)=O (stereo not shown) [Example 1.012]
4: Pre-emergence action STELLA, rating (STELLA)
1: Pre-emergence action PANICU, rating (PANICU [2]) | Pre-emergence action SETARI, rating (SETARI [3]) | Pre-emergence action AMARAN, rating (AMARAN [6]) | Pre-emergence action DIGITA, rating (DIGITA [7]) | Post-emergence action CHENOP, rating (CHENOP [8]) | Pre-emergence action ABUTIL, rating (ABUTIL [12]) | Pre-emergence action ECHINO, rating (ECHINO [13])
2: Post-emergence action ABUTIL, rating (ABUTIL [1]) | Post-emergence action EUPHOR, rating (EUPHOR) | Post-emergence action PANICU, rating (PANICU [4]) | Post-emergence action SETARI, rating (SETARI [9]) | Post-emergence action AMARAN, rating (AMARAN [10]) | Post-emergence action DIGITA, rating (DIGITA [11]) | Post-emergence action ECHINO, rating (ECHINO [14])

CCS(=O)(=O)N(CCOC)C1=C(C(=O)c2ccc(C(F)(F)F)nc2C)C(=O)C2CCC1C2 (stereo not shown) [Example 1.013, Ethanesulfonic acid(2-methoxy-ethyl)-[3-(2-methyl-6-trifluoromethyl-pyridine-3-carbonyl)-4-oxo-bicyclo[3.2.1]oct-2-en-2-yl]-amide]
1: Pre-emergence action STELLA, rating (STELLA) | Pre-emergence action PANICU, rating (PANICU [2]) | Pre-emergence action SETARI, rating (SETARI [3]) | Post-emergence action PANICU, rating (PANICU [4]) | Pre-emergence action CHENOP, rating (CHENOP [5]) | Pre-emergence action AMARAN, rating (AMARAN [6]) | Pre-emergence action DIGITA, rating (DIGITA [7]) | Post-emergence action CHENOP, rating (CHENOP [8]) | Post-emergence action AMARAN, rating (AMARAN [10]) | Pre-emergence action ABUTIL, rating (ABUTIL [12]) | Pre-emergence action ECHINO, rating (ECHINO [13])
2: Post-emergence action ABUTIL, rating (ABUTIL [1]) | Post-emergence action EUPHOR, rating (EUPHOR) | Post-emergence action SETARI, rating (SETARI [9]) | Post-emergence action DIGITA, rating (DIGITA [11]) | Post-emergence action ECHINO, rating (ECHINO [14])

COCCN(C1=C(C(=O)c2ccc(C(F)(F)F)nc2C)C(=O)C2CCC1C2)S(=O)(=O)c1ccccc1 (stereo not shown) [Example 1.027]
2: Pre-emergence action PANICU, rating (PANICU [2]) | Pre-emergence action SETARI, rating (SETARI [3]) | Pre-emergence action AMARAN, rating (AMARAN [6]) | Pre-emergence action DIGITA, rating (DIGITA [7])
3: Pre-emergence action ABUTIL, rating (ABUTIL [12]) | Pre-emergence action ECHINO, rating (ECHINO [13])
9: Pre-emergence action STELLA, rating (STELLA) | Pre-emergence action CHENOP, rating (CHENOP [5])

CCS(=O)(=O)N(Cc1ccccc1)C1=C(C(=O)c2ccc(C(F)(F)F)nc2C)C(=O)C2CCC1C2 (stereo not shown) [Example 1.065]
2: Post-emergence action ABUTIL, rating (ABUTIL [1]) | Post-emergence action PANICU, rating (PANICU [4]) | Pre-emergence action CHENOP, rating (CHENOP [5]) | Pre-emergence action AMARAN, rating (AMARAN [6]) | Post-emergence action AMARAN, rating (AMARAN [10]) | Post-emergence action DIGITA, rating (DIGITA [11])
3: Post-emergence action EUPHOR, rating (EUPHOR) | Post-emergence action ECHINO, rating (ECHINO [14])
5: Post-emergence action SETARI, rating (SETARI [9])
1: Pre-emergence action STELLA, rating (STELLA) | Pre-emergence action PANICU, rating (PANICU [2]) | Pre-emergence action SETARI, rating (SETARI [3]) | Pre-emergence action DIGITA, rating (DIGITA [7]) | Post-emergence action CHENOP, rating (CHENOP [8]) | Pre-emergence action ABUTIL, rating (ABUTIL [12]) | Pre-emergence action ECHINO, rating (ECHINO [13])

Cc1nc(C(F)(F)F)ccc1C(=O)C1=C(N(Cc2ccccc2)S(=O)(=O)C(C)C)C2CCC(C2)C1=O (stereo not shown) [Example 1.067]
2: Pre-emergence action AMARAN, rating (AMARAN [6]) | Pre-emergence action ABUTIL, rating (ABUTIL [12]) | Pre-emergence action ECHINO, rating (ECHINO [13])
1: Pre-emergence action STELLA, rating (STELLA) | Pre-emergence action PANICU, rating (PANICU [2]) | Pre-emergence action SETARI, rating (SETARI [3]) | Pre-emergence action CHENOP, rating (CHENOP [5]) | Pre-emergence action DIGITA, rating (DIGITA [7])

Cc1nc(C(F)(F)F)ccc1C(=O)C1=C(N(Cc2ccccc2)S(=O)(=O)c2ccccc2)C2CCC(C2)C1=O (stereo not shown) [Example 1.079]
2: Pre-emergence action STELLA, rating (STELLA) | Pre-emergence action CHENOP, rating (CHENOP [5]) | Pre-emergence action ECHINO, rating (ECHINO [13])
4: Pre-emergence action ABUTIL, rating (ABUTIL [12])
3: Pre-emergence action AMARAN, rating (AMARAN [6]) | Pre-emergence action DIGITA, rating (DIGITA [7])
1: Pre-emergence action PANICU, rating (PANICU [2])
6: Pre-emergence action SETARI, rating (SETARI [3])
